Results from ChEMBL document CHEMBL1154822, “Synthesis and antiproliferative activity of 7-azaindirubin-3'-oxime, a 7-aza isostere of the natural indirubin pharmacophore” (J Nat Prod, 2009).

Key:
Format in all cases: functional
RXF 393 = experiment: Cytotoxicity against human […] cells assessed as cell growth at 1 mM after 1 to 11 days by MTT assay; conditions: read-out: Activity
SNB-75 [1] = experiment: Cytotoxicity against human SNB75 cells assessed as cell growth at 1 mM after 1 to 11 days by MTT assay; conditions: read-out: Activity
HOP-62 [2] = experiment: Cytotoxicity against human HOP62 cells assessed as cell growth at 10 uM after 1 to 11 days by MTT assay; conditions: read-out: Activity
NCI-H226 = experiment: Cytotoxicity against human NCI-H226 cells assessed as cell growth at 100 uM after 1 to 11 days by MTT assay; conditions: read-out: Activity
TK-10 [3] = experiment: Cytotoxicity against human TK10 cells assessed as cell growth at 10 uM after 1 to 11 days by MTT assay; conditions: read-out: Activity
M14 [4] = experiment: Cytotoxicity against human M14 cells assessed as cell growth at 0.1 uM after 1 to 11 days by MTT assay; conditions: read-out: Activity
SNB-19 [5] = experiment: Cytotoxicity against human SNB19 cells assessed as cell growth at 1 uM after 1 to 11 days by MTT assay; conditions: read-out: Activity
KM12 = experiment: Cytotoxicity against human KM12 cells assessed as cell growth at 1 uM after 1 to 11 days by MTT assay; conditions: read-out: Activity
BT-549 = experiment: Cytotoxicity against human BT549 cells after 1 to 11 days by MTT assay
NCI-H522 [6] = experiment: Cytotoxicity against human NCI-H522 cells assessed as cell growth at 1 mM after 1 to 11 days by MTT assay; conditions: read-out: Activity
SR [7] = experiment: Cytotoxicity against human SR cells assessed as cell growth at 100 uM after 1 to 11 days by MTT assay; conditions: read-out: Activity
HL-60(TB) [8] = experiment: Cytotoxicity against human HL-60(TB) cells assessed as cell growth at 1 mM after 1 to 11 days by MTT assay; conditions: read-out: Activity
SR [9] = experiment: Cytotoxicity against human SR cells assessed as cell growth at 1 mM after 1 to 11 days by MTT assay; conditions: read-out: Activity
SF-268 = experiment: Cytotoxicity against human SF268 cells assessed as cell growth at 10 uM after 1 to 11 days by MTT assay; conditions: read-out: Activity
A498 = experiment: Cytotoxicity against human A498 cells assessed as cell growth at 10 uM after 1 to 11 days by MTT assay; conditions: read-out: Activity
K562 [10] = experiment: Cytotoxicity against human K562 cells after 1 to 11 days by MTT assay
HCT-15 = experiment: Cytotoxicity against human HCT15 cells assessed as cell growth at 1 uM after 1 to 11 days by MTT assay; conditions: read-out: Activity
HCC 2998 = experiment: Cytotoxicity against human HCC2998 cells assessed as cell growth at 100 uM after 1 to 11 days by MTT assay; conditions: read-out: Activity
MOLT-4 = experiment: Cytotoxicity against human MOLT4 cells assessed as cell growth at 1 mM after 1 to 11 days by MTT assay; conditions: read-out: Activity
RPMI-8226 = experiment: Cytotoxicity against human RPMI8226 cells assessed as cell growth at 0.1 uM after 1 to 11 days by MTT assay; conditions: read-out: Activity
K562 [11] = experiment: Cytotoxicity against human K562 cells assessed as cell growth at 1 mM after 1 to 11 days by MTT assay; conditions: read-out: Activity
SN12C [12] = experiment: Cytotoxicity against human SN12C cells after 1 to 11 days by MTT assay
NCI-H522 [13] = experiment: Cytotoxicity against human NCI-H522 cells assessed as cell growth at 1 uM after 1 to 11 days by MTT assay; conditions: read-out: Activity
LOX IMVI = experiment: Cytotoxicity against human LOXIMVI cells assessed as cell growth at 10 uM after 1 to 11 days by MTT assay; conditions: read-out: Activity
PC-3 = experiment: Cytotoxicity against human PC3 cells assessed as cell growth at 10 uM after 1 to 11 days by MTT assay; conditions: read-out: Activity
SW-620 = experiment: Cytotoxicity against human SW620 cells assessed as cell growth at 1 uM after 1 to 11 days by MTT assay; conditions: read-out: Activity
HOP-92 = experiment: Cytotoxicity against human HOP92 cells assessed as cell growth at 0.1 uM after 1 to 11 days by MTT assay; conditions: read-out: Activity
786-0 = experiment: Cytotoxicity against human 786-0 cells assessed as cell growth at 10 uM after 1 to 11 days by MTT assay; conditions: read-out: Activity
OVCAR-3 [14] = experiment: Cytotoxicity against human OVCAR-3 cells assessed as cell growth at 10 uM after 1 to 11 days by MTT assay; conditions: read-out: Activity
HL-60(TB) [15] = experiment: Cytotoxicity against human HL-60(TB) cells assessed as cell growth at 0.1 uM after 1 to 11 days by MTT assay; conditions: read-out: Activity
HOP-62 [16] = experiment: Cytotoxicity against human HOP62 cells assessed as cell growth at 1 uM after 1 to 11 days by MTT assay; conditions: read-out: Activity
SN12C [17] = experiment: Cytotoxicity against human SN12C cells assessed as cell growth at 100 uM after 1 to 11 days by MTT assay; conditions: read-out: Activity
TK-10 [18] = experiment: Cytotoxicity against human TK10 cells assessed as cell growth at 1 uM after 1 to 11 days by MTT assay; conditions: read-out: Activity
OVCAR-5 = experiment: Cytotoxicity against human OVCAR5 cells assessed as cell growth at 1 uM after 1 to 11 days by MTT assay; conditions: read-out: Activity
HL-60(TB) [19] = experiment: Cytotoxicity against human HL-60(TB) cells assessed as cell growth at 10 uM after 1 to 11 days by MTT assay; conditions: read-out: Activity
SNB-19 [20] = experiment: Cytotoxicity against human SNB19 cells after 1 to 11 days by MTT assay
ACHN = experiment: Cytotoxicity against human ACHN cells after 1 to 11 days by MTT assay
UO-31 = experiment: Cytotoxicity against human UO31 cells assessed as cell growth at 100 uM after 1 to 11 days by MTT assay; conditions: read-out: Activity
M14 [21] = experiment: Cytotoxicity against human M14 cells assessed as cell growth at 10 uM after 1 to 11 days by MTT assay; conditions: read-out: Activity
MDA-MB-468 = experiment: Cytotoxicity against human MDA-MB-468 cells assessed as cell growth at 1 uM after 1 to 11 days by MTT assay; conditions: read-out: Activity
IGROV-1 = experiment: Cytotoxicity against human IGROV1 cells assessed as cell growth at 1 mM after 1 to 11 days by MTT assay; conditions: read-out: Activity
OVCAR-3 [22] = experiment: Cytotoxicity against human OVCAR-3 cells after 1 to 11 days by MTT assay
K562 [23] = experiment: Cytotoxicity against human K562 cells assessed as cell growth at 1 uM after 1 to 11 days by MTT assay; conditions: read-out: Activity
SNB-75 [24] = experiment: Cytotoxicity against human SNB75 cells assessed as cell growth at 0.1 uM after 1 to 11 days by MTT assay; conditions: read-out: Activity
[25] = read-out: LC50 (the source's name)

O=C1Nc2ncccc2/C1=C1/Nc2ccccc2/C1=N\O
growth at 1000 µM (RXF 393): 7% | growth at 1000 µM (SNB-75 [1]): 19% | growth at 10 µM (HOP-62 [2]): 105% | growth at 100 µM (NCI-H226): -5% | growth at 10 µM (TK-10 [3]): 91% | growth at 0.1 µM (M14 [4]): 95% | growth at 1 µM (SNB-19 [5]): 97% | growth at 1 µM (KM12): 91% | GI50 (BT-549): 5.41 µM | TGI (BT-549): > 100 µM | CC50 (BT-549; [25]): > 100 µM | growth at 1000 µM (NCI-H522 [6]): 50% | growth at 100 µM (SR [7]): 29% | growth at 1000 µM (HL-60(TB) [8]): 7% | growth at 1000 µM (SR [9]): 26% | growth at 10 µM (SF-268): 91% | growth at 10 µM (A498): 63% | GI50 (K562 [10]): 3.84 µM | TGI (K562 [10]): > 100 µM | CC50 (K562 [10]; [25]): > 100 µM | growth at 1 µM (HCT-15): 96% | growth at 100 µM (HCC 2998): 39% | growth at 1000 µM (MOLT-4): 18% | growth at 0.1 µM (RPMI-8226): 95% | growth at 1000 µM (K562 [11]): 25% | GI50 (SN12C [12]): 4.98 µM | TGI (SN12C [12]): > 100 µM | CC50 (SN12C [12]; [25]): > 100 µM | growth at 1 µM (NCI-H522 [13]): 99% | growth at 10 µM (LOX IMVI): 86% | growth at 10 µM (PC-3): 82% | growth at 1 µM (SW-620): 94% | growth at 0.1 µM (HOP-92): 102% | growth at 10 µM (786-0): 114% | growth at 10 µM (OVCAR-3 [14]): 80% | growth at 0.1 µM (HL-60(TB) [15]): 103% | growth at 1 µM (HOP-62 [16]): 100% | growth at 100 µM (SN12C [17]): 37% | growth at 1 µM (TK-10 [18]): 104% | growth at 1 µM (OVCAR-5): 89% | growth at 10 µM (HL-60(TB) [19]): 80% | GI50 (SNB-19 [20]): > 100 µM | TGI (SNB-19 [20]): > 100 µM | CC50 (SNB-19 [20]; [25]): > 100 µM | GI50 (ACHN): 2.68 µM | TGI (ACHN): > 100 µM | CC50 (ACHN; [25]): > 100 µM | growth at 100 µM (UO-31): 3% | growth at 10 µM (M14 [21]): 86% | growth at 1 µM (MDA-MB-468): 75% | growth at 1000 µM (IGROV-1): 12% | GI50 (OVCAR-3 [22]): > 100 µM | TGI (OVCAR-3 [22]): > 100 µM | CC50 (OVCAR-3 [22]; [25]): > 100 µM | growth at 1 µM (K562 [23]): 76% | growth at 0.1 µM (SNB-75 [24]): 84%
